Laboratory results from ChEMBL document CHEMBL1156829 (Proc Natl Acad Sci U S A, 2008).

Legend:
[1] = NOVARTIS: Cytotoxicity against human hepatocellular carcinoma cell line (Huh7); assay type: toxicity, cell-based, Huh-7; details: Huh7 cells (hepatocellular carcinoma cell line)
Plasmodium falciparum [2] = assay: NOVARTIS: Inhibition of Plasmodium falciparum 3D7 (drug-susceptible) proliferation in erythrocyte-based infection assay; assay type: functional, organism-based; details: Plasmodium falciparum, 3D7
Plasmodium falciparum [3] = assay: NOVARTIS: Inhibition of Plasmodium falciparum W2 (drug-resistant) proliferation in erythrocyte-based infection assay; assay type: functional, organism-based; details: Plasmodium falciparum, W2; read-out: EC50

SMILES	CC50 [1]	EC50 (Plasmodium falciparum [2])	EC50 (Plasmodium falciparum [3])
COCCOC(=O)C1=C(C)NC2=C(C(=O)CC(c3ccc(OC)c(OC)c3)C2)C1c1ccccc1C (stereo unspecified)	> 100000 nM	110 nM	32.3 nM
Cc1cc(C(=O)N2CCOc3c(cc(-c4csc5ccccc45)cc3OCCc3ccccn3)C2)n(C)n1	46900 nM	32.5 nM	13.9 nM
COC(=O)c1c(-c2c(Cl)cccc2Cl)noc1/C=C/Nc1ccc(Cl)cc1	> 10000 nM	13.5 nM	< 2.95 nM
COc1ccc(C2CC(=O)C3=C(C2)NC(C)=C(C(=O)OC(C)C)C3c2ccccc2Br)cc1 (stereo unspecified)	> 100000 nM	62 nM	28.5 nM
CCOC(=O)C1=C(C)NC2=C(C(=O)CC(c3ccc(OC)c(OC)c3)C2)C1c1ccccc1C (stereo unspecified)	> 100000 nM	134 nM	27.4 nM
Cc1ccc(-c2c3c(nc4sc(C(=O)Nc5ccc(F)cc5)c(N)c24)CCC3)cc1	> 100000 nM	68.8 nM	27.2 nM
CN(C)CC(C)(C)CNCc1cc(-c2ccccc2)ccc1O	38000 nM	66.1 nM	6.53 nM
CC(C)CNCc1cc(-c2ccc(F)cc2)ccc1O	58600 nM	104 nM	10 nM
C=CC1CN2CCC1C(C(O)c1ccnc3ccc(OC)cc13)C2 (stereo unspecified)	> 100000 nM	7.21 nM	15.1 nM
COC(=O)C1=C(C)NC2=C(C(=O)CC(c3ccc(OC)c(OC)c3)C2)C1c1ccc(Cl)cc1Cl (stereo unspecified)	> 100000 nM	169 nM	14.3 nM
COC(=O)C1=C(C)NC2=C(C(=O)CC(c3ccc(OC)c(OC)c3)C2)C1c1ccc(F)cc1 (stereo unspecified)	> 100000 nM	27.9 nM	14 nM
CCOC(=O)c1ccc2c(c1)[C@@H]1C=CC[C@@H]1[C@H](c1cccc(OC)c1OC)N2	> 100000 nM	471 nM	31.8 nM
COc1ccc(C2CC(=O)C3=C(C2)NC(C)=C(C(=O)OC2CCCC2)C3c2ccc([N+](=O)[O-])cc2)cc1OC (stereo unspecified)	> 100000 nM	31 nM	14.8 nM
CCOC(=O)C(=O)N1c2ccc(OCC)cc2-c2c(ssc2=S)C1(C)C	> 100000 nM	252 nM	25.2 nM
CC(CCc1ccccc1)NCC(O)c1cccc([N+](=O)[O-])c1 (stereo unspecified)	42500 nM	205 nM	14.5 nM
COC(=O)C1=C(C)NC2=C(C(=O)CC(c3ccc(OC)c(OC)c3)C2)C1c1ccccc1F (stereo unspecified)	> 100000 nM	50.5 nM	30.6 nM

SMILES	CC50 [1]	EC50 (Plasmodium falciparum [2])	EC50 (Plasmodium falciparum [3])
CN(Cc1cc(-c2ccc(F)cc2)ccc1O)CC(O)c1ccccc1 (stereo unspecified)	> 70900 nM	223 nM	14.2 nM
COc1cccc(-c2ccc(O)c(CNCC3CC4C=CC3C43CC3)c2)n1 (stereo unspecified)	> 85900 nM	153 nM	19.9 nM
CCOC(=O)c1c(NC(C)=O)sc2c(O)c(CNC3CCCCC3)ccc12	> 100000 nM	80.5 nM	21.4 nM
CC1CCC2C(C)C(O)OC3OC4(C)CCC1C32OO4 (stereo unspecified)	> 10000 nM	7.05 nM	3.31 nM
CCCOC(=O)C1=C(C)NC2=C(C(=O)CC(c3ccc(OC)cc3)C2)C1c1cccc(Cl)c1Cl (stereo unspecified)	> 100000 nM	233 nM	30.8 nM
CC1N=C(c2ccc(NC(=O)c3ccc(C(=O)Nc4ccc(C5=NC(C)C(C)N5)cc4)cc3)cc2)NC1C (stereo unspecified)	> 100000 nM	57.6 nM	14.8 nM
COc1ccc(OC)c(-c2ccc(O)c(CNCC3(N4CCCCC4)CCCCC3)c2)c1	38000 nM	43.7 nM	11.3 nM
CN(c1ccc(Br)cc1)S(=O)(=O)c1ccc2[nH]cc(C(=O)N3CCN(c4ccccc4)CC3)c(=O)c2c1	> 10000 nM	> 1250 nM	< 2.83 nM
CCOC(=O)C1=C(C)NC2=C(C(=O)CC(c3ccc(OC)c(OC)c3)C2)C1c1ccccc1F (stereo unspecified)	> 100000 nM	27.6 nM	26.4 nM
COc1ccc(C2CC(=O)C3=C(C2)NC(C)=C(C(=O)OC(C)C)C3c2ccc([N+](=O)[O-])cc2)cc1OC (stereo unspecified)	> 100000 nM	31.9 nM	31.8 nM
Oc1ccc(-c2ccc(F)cc2)cc1CN1CCCCCC1	> 100000 nM	110 nM	19.6 nM
CCOC(=O)C1=C(C)NC2=C(C(=O)CC(c3ccccc3)C2)C1c1ccccc1Cl (stereo unspecified)	> 100000 nM	251 nM	34.9 nM
COc1ccc(C2CC(=O)C3=C(C2)NC(C)=C(C(=O)OC(C)C)C3c2ccccc2Br)cc1OC (stereo unspecified)	23300 nM	13.7 nM	7.84 nM
CCC(c1nc2ccccc2c(=O)n1-c1ccccc1OC)N(CCc1ccccc1)C(=O)CCc1ccccc1 (stereo unspecified)	4170 nM	134 nM	< 0.572 nM
CCCOC(=O)C1=C(C)NC2=C(C(=O)CC(c3ccc(OC)cc3)C2)C1c1cccc(F)c1 (stereo unspecified)	> 100000 nM	72.4 nM	32.9 nM
CCCOC(=O)C1=C(C)NC2=C(C(=O)CC(c3ccc(OC)cc3)C2)C1c1ccc(Cl)cc1Cl (stereo unspecified)	> 100000 nM	36.9 nM	16.2 nM
